According to patent publication US11117900B2 (Vertex Pharmaceuticals Incorporated, priority 2012, dated 2021):

Test system: HCT116 colorectal cancer cells
Assay: Cisplatin sensitization assay (96 h MTS cell viability);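 note: compound concentration needed to lower the IC50 of Cisplatin alone by a set fold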
Assay type: cell-based
Details: Cisplatin sensitization value
Procedure, shortened: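 HCT116 cells were dosed simultaneously with compound and cisplatin as a full matrix of 2-fold serial dilutions from 10 μM top final concentration. Incubation was 96 h at 37° C., 5% CO2, followed by 1 h with MTS reagent for the viability read-out. Sensitization values were binned into +++, ++ and + categories.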

SMILES | Cisplatin Sensitization Assay
Nc1nn2cc(F)cnc2c1C(=O)Nc1cncc(F)c1N1CCC(C(=O)N2CCOCC2)CC1 [I-G-36, 2-amino-6-fluoro-N-(5-fluoro-4-(4-(morpholine-4-carbonyl)piperidin-1-yl)pyridin-3-yl)pyrazolo[1,5-a]pyrimidine-3-carboxamide] | +++ (Compounds with a Cisplatin sensitization value of <0.02 μM are marked with “+++.”)
Nc1nn2cc(F)cnc2c1C(=O)Nc1cncc(F)c1N1CCC(C(=O)NC2COC2)CC1 [I-G-37, 2-amino-6-fluoro-N-(5-fluoro-4-(4-(oxetan-3-ylcarbamoyl)piperidin-1-yl)pyridin-3-yl)pyrazolo[1,5-a]pyrimidine-3-carboxamide] | ++ (Compounds with a Cisplatin sensitization value >0.02 μM but <0.2 μM are marked with “++.”)
CN1CCN(C(=O)C2CCN(c3c(F)cncc3NC(=O)c3c(N)nn4cc(F)cnc34)CC2)CC12CC2 [I-G-38, 2-amino-6-fluoro-N-(5-fluoro-4-(4-(4-methyl-4,7-diazaspiro[2.5]octane-7-carbonyl)piperidin-1-yl)pyridin-3-yl)pyrazolo[1,5-a]pyrimidine-3-carboxamide] | +++ (Compounds with a Cisplatin sensitization value of <0.02 μM are marked with “+++.”)
COCCN(C)C(=O)C1CCN(c2c(F)cncc2NC(=O)c2c(N)nn3cc(F)cnc23)CC1 [I-G-40, 2-amino-6-fluoro-N-(5-fluoro-4-(4-((2-methoxyethyl)(methyl)carbamoyl)piperidin-1-yl)pyridin-3-yl)pyrazolo[1,5-a]pyrimidine-3-carboxamide] | +++ (Compounds with a Cisplatin sensitization value of <0.02 μM are marked with “+++.”)
Nc1nn2cc(F)cnc2c1C(=O)Nc1cncc(F)c1N1CCC(C(=O)N2CC(O)C2)CC1 [I-G-41, 2-amino-6-fluoro-N-(5-fluoro-4-(4-(3-hydroxyazetidine-1-carbonyl)piperidin-1-yl)pyridin-3-yl)pyrazolo[1,5-a]pyrimidine-3-carboxamide] | +++ (Compounds with a Cisplatin sensitization value of <0.02 μM are marked with “+++.”)
Nc1nn2cc(F)cnc2c1C(=O)Nc1cncc(F)c1N1CCC(C(=O)NCCN2CCC2)CC1 [I-G-42, 2-amino-N-(4-(4-((2-(azetidin-1-yl)ethyl)carbamoyl)piperidin-1-yl)-5-fluoropyridin-3-yl)-6-fluoropyrazolo[1,5-a]pyrimidine-3-carboxamide] | +++ (Compounds with a Cisplatin sensitization value of <0.02 μM are marked with “+++.”)
Nc1nn2cc(F)cnc2c1C(=O)Nc1cncc(F)c1N1CCC(C(=O)N2CC(N3CCCC3)C2)CC1 [I-G-43, 2-amino-6-fluoro-N-(5-fluoro-4-(4-(3-(pyrrolidin-1-yl)azetidine-1-carbonyl)piperidin-1-yl)pyridin-3-yl)pyrazolo[1,5-a]pyrimidine-3-carboxamide] | +++ (Compounds with a Cisplatin sensitization value of <0.02 μM are marked with “+++.”)
Nc1nn2cc(F)cnc2c1C(=O)Nc1cncc(F)c1N1CCC(C(=O)N2CC3CCC(C2)N3)CC1 [I-G-44, N-(4-(4-(3,8-diazabicyclo[3.2.1]octane-3-carbonyl)piperidin-1-yl)-5-fluoropyridin-3-yl)-2-amino-6-fluoropyrazolo[1,5-a]pyrimidine-3-carboxamide] | +++ (Compounds with a Cisplatin sensitization value of <0.02 μM are marked with “+++.”)
C[C@@H]1CN(C(=O)C2CCN(c3c(F)cncc3NC(=O)c3c(N)nn4cc(F)cnc34)CC2)CCN1 [I-G-45, (R)-2-amino-6-fluoro-N-(5-fluoro-4-(4-(3-methylpiperazine-1-carbonyl)piperidin-1-yl)pyridin-3-yl)pyrazolo[1,5-a]pyrimidine-3-carboxamide] | +++ (Compounds with a Cisplatin sensitization value of <0.02 μM are marked with “+++.”)
